Consider nine compounds from patent US20100004443A1, “LINEAR PYRIDAZINE AND PYRROLE COMPOUNDS, METHOD FOR OBTAINING THEM AND APPLICATIONS” (CENTRE NATIONAL DE LA RECHERCHE SCIENTIFIQUE (C.N., priority 2006, published 2010).

In brackets after ≈: the same amount, converted by molar mass. Several values for one entry are separate records, joined by “and”; a condition that tells them apart may be missing. Equal entries are not always repeated. Where only a bound is given, the exact number is not on record here.

The test system of one data set is KB cells. The data set can be described thus: Cytotoxicity on KB cells. Format: cell-based.
Another data set relates to Leishmania mexicana. The data set can be described thus: Parasitology, Leishmania mexicana. Format: cell-based. Particulars: read-out: Parasitology IC50 or 80 Leishmania mexicana.
Another data set deals with Candida albicans. Put plainly: Parasitology, Candida albicans. The settings on record: read-out: Parasitology IC50 or 80 Candida albicans. It counts as cell-based.
The subject of data set [1] is KB, Caco, Huh7 and fibroblast cells. Put plainly: in vitro cytotoxicity test on KB, Caco, Huh7 and fibroblast cells. Format: cell-based. From the text:
Preferably, the cancer concerned by the invention is a carcinoma, for instance a carcinoma of the ear, nose or throat, of the lungs, of the uterus, of the digestive system (oesophagus, colon, liver), of the skin, of the breasts, of the prostate, of the ovaries, etc.

The next data set can be described thus: Cytotoxicity on KB cells. It counts as cell-based. The settings on record: human, KB cells.
A further data set relates to E. coli. The data set can be described thus: Inhibition of the growth of E. coli. Format: cell-based.
The target of another data set is tonB protein (Escherichia coli, UniProt P02929). The data set can be described thus: Effect on tonB protein (iron transfer for bacterial growth).
The mark [2] stands for this setting: second value (cell beside the first).

Chain of tonB protein (P02929 whole entry): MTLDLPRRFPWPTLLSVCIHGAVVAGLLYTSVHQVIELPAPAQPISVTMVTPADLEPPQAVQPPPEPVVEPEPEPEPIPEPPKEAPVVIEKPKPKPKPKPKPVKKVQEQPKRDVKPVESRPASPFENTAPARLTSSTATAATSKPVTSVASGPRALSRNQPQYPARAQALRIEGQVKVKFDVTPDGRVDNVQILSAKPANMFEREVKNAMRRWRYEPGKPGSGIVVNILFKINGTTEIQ

With `Cc1cccc(-c2ccc(-c3ccc(-c4cccc(C)n4)nn3)nn2)n1` [Compound 2, 6,6′-bis(6-methylpyridin-2-yl)-3,3′-bipyridazine], the “KB cells Cytotoxicity % inhibition à [10^−5]” value in the data set on KB cells (first value) stood at 23%; in the data set with KB cells (setting [2]), 12%. The IC50 in the data set with Leishmania mexicana is 2.2 µM and 0.91 µg/mL; in the data set with Candida albicans, 62 µM and 25.9 µg/mL.
Consider `S=c1ccc(-c2ccccn2)n[nH]1` [Compound 10, 6-(pyridin-2-yl)-2H-pyridazin-3-thione], for which the “KB cells Cytotoxicity % inhibition à [10^−5]” value turned out to be 84% in the data set with KB cells (first value) and 74% in the data set with KB cells (setting [2]). For the same compound, the “cytotoxic activity in a cancerous cell model” value (“cytotoxic activity” below) in data set [1] is on record as “very high levels of cytotoxic activity”.
Turning to `c1ccc(-c2ccc(-c3ccc(-c4ccccn4)nn3)nn2)nc1` [Compound 19, 6,6′-bis(pyridin-2-yl)-3,3′-bipyridazine], in the data set on KB cells (first value), the “KB cells Cytotoxicity % inhibition à [10^−5]” value was 16%.
In the case of `C=C(OCC)c1ccc(-c2ccc(C(=C)OCC)nn2)nn1` [Compound 24, 6,6′-di-(1-ethoxyvinyl)-3,3′-bipyridazine], the IC50 in the data set “Cytotoxicity on KB cells” was 1.23 µM and 0.37 µg/mL; in the data set on KB cells (Homo sapiens, KB, read-out: IC50 on KB cancerous cells), 0.3 µg/mL (≈ 1.01 µM). Further, the “KB cells Cytotoxicity % inhibition à [10^−5]” value in the data set on KB cells (first value) amounted to 96%; with KB cells (setting [2]) it was 95%. Also, in data set [1], the “cytotoxic activity” value was “very high levels of cytotoxic activity”. Also, the “inhibition of the growth of E. coli” value with E. coli was “able to inhibit the growth of E. coli”. Moreover, the “effect on the tonB protein” value on tonB protein was “affects the tonB protein”.
Regarding `Cc1cccc(-c2ccc(-c3ccccn3)nn2)n1` [Compound 44, 3-(6-methylpyridin-2-yl)-6-(pyridin-2-yl)pyridazine], the “KB cells Cytotoxicity % inhibition à [10^−5]” value with KB cells (first value) amounted to 11%; in the data set with KB cells (setting [2]), 21%. In addition, the IC50 in the data set on Leishmania mexicana was < 1 µM and < 0.25 µg/mL; in the data set on Candida albicans, 600 nM and 0.15 µg/mL. Further, in data set [1], the “cytotoxic activity” value is listed as “very high levels of cytotoxic activity”.
Regarding `O=C(O)c1cccc(-c2ccc(-c3ccccn3)nn2)n1` [Compound 45, 3-(2-carboxypyridin-6-yl)-6-(pyridin-2-yl)-pyridazine], the figures for the “KB cells Cytotoxicity % inhibition à [10^−5]” value in the data set on KB cells (first value) and in the data set on KB cells (setting [2]) were 9% and 3%, respectively. The IC50 with Leishmania mexicana was 14 µM and 3.9 µg/mL; with Candida albicans it was more than 100 µM.
For the compound `O=C(O)c1cccc(-c2ccc(-c3cccc(C(=O)O)n3)nn2)n1` [Compound 48, 3,6-bis(2-carboxypyridin-6-yl)-pyridazine], the “KB cells Cytotoxicity % inhibition à [10^−5]” value with KB cells (first value) amounted to 21%. For the same compound, the IC50 is 3 µM and 0.96 µg/mL in the data set with Leishmania mexicana; > 100 µM and ≥ 32.2 µg/mL with Candida albicans.
`CCCCc1cc(-c2ccccn2)[nH]c1-c1ccccn1` [Compound 68]: in the data set with KB cells (first value), the “KB cells Cytotoxicity % inhibition à [10^−5]” value turned out to be 43%.
`c1ccc(-c2ccc(-c3ccccn3)nn2)nc1` [Compound 80, 3,6-bispyridin-2-ylpyridazine]: the “cytotoxic activity” value in data set [1] was “very high levels of cytotoxic activity”.
